Test results published in ChEMBL document CHEMBL1149799, “Bioactive peroxides as potential therapeutic agents” (Eur J Med Chem, 2008).
In brackets after ≈: the same amount, converted by molar mass.

What was measured:
[1] = biological target: Aldo-keto reductase family 1 member B1 (Rattus norvegicus, UniProt P07943); assay: Inhibition of rat lens aldose reductase
[2] = test system: SNU1; assay: Cytotoxicity against human SNU1 cells; type: functional, cell-based
[3] = test system: SNU-354; assay: Cytotoxicity against human SNU354 cells; type: functional, cell-based
[4] = Cytotoxicity against human SNUC4 cells; type: functional, cell-based; settings: SNU-C4
[5] = Cytotoxicity against mouse sarcoma 180 cells; type: functional, cell-based
[6] = test system: Jurkat; assay: Cytotoxicity against human Jurkat cells at 10 ug/mL; type: functional
[7] = test system: HL-60; assay: Cytotoxicity against human HL60 cells at 10 ug/mL; type: functional
[8] = test system: K562; assay: Cytotoxicity against human K562 cells at 10 ug/mL; type: functional
[9] = Cytotoxicity against human WM1341 cells at 10 ug/mL; type: functional
[10] = Cytotoxicity against human RPM18226 cells at 10 ug/mL; type: functional; settings: RPMI-8226
[11] = test system: Candida albicans; assay: Antifungal activity against Candida albicans; type: functional
[12] = test system: Aspergillus fumigatus; assay: Antifungal activity against Aspergillus fumigatus; type: functional
[13] = Cytotoxicity against human Fem-X cells; type: functional, cell-based
[14] = test system: PBMC; assay: Cytotoxicity against human PHA-activated PBMC cells; type: cell-based
[15] = test system: HeLa; assay: Cytotoxicity against human HeLa cells; type: functional, cell-based
[16] = test system: K562; assay: Cytotoxicity against human K562 cells; type: functional, cell-based
[17] = test system: PBMC; assay: Cytotoxicity against human PBMC cells; type: cell-based

Work on `CC(C)[C@@H](C)/C=C/[C@@H](C)[C@H]1CC[C@@H]2[C@]1(C)CC[C@H]1[C@]23C=C[C@]2(C[C@@H](O)CC[C@]12C)OO3` [ERGOSTEROL PEROXIDE] yielded an IC50 [1] of 35.9 µM, an IC50 [2] of 18.7 µM and an IC50 [3] of 158 µM. It also gave an IC50 [4] of 84.6 µM and an IC50 [5] of 74.1 µM.
In the case of `CC(C)[C@@H](C)/C=C/[C@@H](C)[C@H]1CC[C@@H]2[C@]1(C)CC[C@H]1[C@]23C=C[C@]2(C[C@@H](O[C@@H]4O[C@H](CO)[C@@H](O)[C@H](O)[C@H]4O)CC[C@]12C)OO3`, the inhibition at 10 µg/mL [6] is reported as 10%, the inhibition at 10 µg/mL [7] is reported as 10% and the inhibition at 10 µg/mL [8] is reported as 10%. It also gave an inhibition at 10 µg/mL [9] of 10% and an inhibition at 10 µg/mL [10] of 10%.
For `CC/C=C/C(CC)C/C=C/[C@@]1(CC)C[C@H](CC)[C@@H](CC(=O)O)OO1` (some centres not stated), the MIC [11] was 5 µg/mL (≈ 14.8 µM) and the IC90 [12] was 5.6 µg/mL (≈ 16.5 µM).
Work on `C=C1C(=O)O[C@H]2C1C[C@@H](OC(C)=O)[C@@](C)(O)[C@@]13C=C[C@@](C)(OO1)[C@H]23` (some centres not stated) [APRESSIN] yielded an IC50 [13] of 5.27 µg/mL (≈ 15.7 µM), an IC50 [14] of 8.78 µg/mL (≈ 26.1 µM) and an IC50 [15] of 7.36 µg/mL (≈ 21.9 µM). The IC50 [16] was 4.44 µg/mL (≈ 13.2 µM) and the IC50 [17] was 15.9 µg/mL (≈ 47.2 µM).
